# Measured values taken from patent US12343430B2, “Methods of improving pharmaceutical substance solubilization and products thereof” (MUDANJIANG LINRUN PHARAMA EXCIPIENTS LLC., priority 2019, dated 2025).
# Legend:
# [1] = Solubility time profile of co-attrited Carbamazepine at 25° C., HPLC (Example 14); format: physicochemical; details: 500 mL DI water, paddle 100 rpm
# Source text: At each time interval, a given amount of solution was sampled and tested by an HPLC method.
# [2] = Solubility time profile of co-attrited Carbamazepine at 37° C. (Example 12); format: physicochemical; details: 100 mL DI water, 0.45 μm filter, UV 285 nm
# Source text: All the final extrudant samples from Examples 8-11 were milled into powder and passed through an 80 mesh screen. […] At each sampling time, the solution sample was taken and filtered through a 0.45 μm syringe microfilter. […] For reference, the API Carbamazepine sample was used as control.
smiles,measurement,setting,value
"NC(=O)N1c2ccccc2C=Cc2ccccc21 [Carbamazepine API, Carbamazepine]","Solubility, drug concentration",[1]; 15 minutes,225.68 µg/mL
same,"Solubility, drug concentration",[1]; 30 minutes,202.16 µg/mL
same,solubility at 5 min,"[1]; deionised water, thermodynamic from solid, 5 minutes, read-out: Solubility, drug concentration",89.2 µg/mL
same,solubility at 10 min,"[1]; deionised water, thermodynamic from solid, 10 minutes, read-out: Solubility, drug concentration",176 µg/mL
same,solubility at 45 min,"[1]; deionised water, thermodynamic from solid, 45 minutes, read-out: Solubility, drug concentration",175 µg/mL
same,solubility at 60 min,"[1]; deionised water, thermodynamic from solid, 60 minutes, read-out: Solubility, drug concentration",173 µg/mL
same,Solubility,[2]; 60 min,320 µg/mL
same,Solubility,[2]; 180 min,288 µg/mL
same,solubility at 5 min,"[2]; deionised water, thermodynamic from solid, 5 min",404 µg/mL
same,solubility at 10 min,"[2]; deionised water, thermodynamic from solid, 10 min",402 µg/mL
same,solubility at 15 min,"[2]; deionised water, thermodynamic from solid, 15 min",401 µg/mL
same,solubility at 90 min,"[2]; deionised water, thermodynamic from solid, 90 min",316 µg/mL
same,solubility at 120 min,"[2]; deionised water, thermodynamic from solid, 120 min",303 µg/mL
